target: Epidermal growth factor receptor (Homo sapiens, UniProt P00533); experiment: Concentration required to inhibit the phosphorylation of a 14-residue fragment of phospholipase C gamma 1 by Epidermal growth factor receptor from A431 cell vesicles
Sequence (P00533 whole entry, the tested form may be a part): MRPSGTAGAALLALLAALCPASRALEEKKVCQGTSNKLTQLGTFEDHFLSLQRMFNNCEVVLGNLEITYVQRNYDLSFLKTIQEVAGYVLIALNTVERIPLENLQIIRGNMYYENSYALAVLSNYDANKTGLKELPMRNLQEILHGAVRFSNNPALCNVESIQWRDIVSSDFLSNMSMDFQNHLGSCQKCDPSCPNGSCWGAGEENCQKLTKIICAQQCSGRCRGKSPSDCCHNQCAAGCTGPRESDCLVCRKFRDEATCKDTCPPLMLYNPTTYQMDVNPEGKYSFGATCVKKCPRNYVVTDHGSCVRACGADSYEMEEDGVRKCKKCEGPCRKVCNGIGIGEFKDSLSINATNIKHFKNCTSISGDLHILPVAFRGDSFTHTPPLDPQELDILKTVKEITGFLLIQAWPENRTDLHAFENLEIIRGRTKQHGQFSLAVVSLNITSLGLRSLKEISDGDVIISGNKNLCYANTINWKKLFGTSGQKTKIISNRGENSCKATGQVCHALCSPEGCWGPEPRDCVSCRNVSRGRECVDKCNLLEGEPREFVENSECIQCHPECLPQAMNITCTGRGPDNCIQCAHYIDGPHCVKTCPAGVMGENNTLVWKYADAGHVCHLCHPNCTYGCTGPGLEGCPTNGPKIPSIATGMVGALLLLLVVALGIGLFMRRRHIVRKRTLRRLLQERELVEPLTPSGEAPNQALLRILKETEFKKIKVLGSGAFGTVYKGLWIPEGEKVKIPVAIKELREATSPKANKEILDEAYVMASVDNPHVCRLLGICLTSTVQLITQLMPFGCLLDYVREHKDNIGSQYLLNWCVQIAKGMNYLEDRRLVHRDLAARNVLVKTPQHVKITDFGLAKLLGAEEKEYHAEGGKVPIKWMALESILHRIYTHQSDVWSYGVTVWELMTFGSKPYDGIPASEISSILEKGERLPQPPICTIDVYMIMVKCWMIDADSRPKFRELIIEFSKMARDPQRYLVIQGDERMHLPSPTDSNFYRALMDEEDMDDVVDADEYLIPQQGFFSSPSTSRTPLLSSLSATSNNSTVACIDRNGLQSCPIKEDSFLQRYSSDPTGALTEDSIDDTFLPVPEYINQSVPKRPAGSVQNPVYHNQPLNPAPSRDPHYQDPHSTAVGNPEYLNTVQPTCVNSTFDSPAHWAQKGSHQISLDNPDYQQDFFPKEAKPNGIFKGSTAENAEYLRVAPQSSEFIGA

Row | SMILES | IC50
1 | COc1cc2nc(C)nc(Nc3cccc(Br)c3)c2cc1OC | > 10000 nM
2 | COc1cc2ncnc(Nc3cccc(C(F)(F)F)c3)c2cc1OC | 0.24 nM
3 | COc1cc2ncnc(Nc3cccc(Br)c3)c2c(OC)c1OC | 0.67 nM
4 | CCCCOc1cc2ncnc(Nc3cccc(Br)c3)c2cc1OCCCC | 105 nM
5 | O=[N+]([O-])c1ccc2ncnc(Nc3cccc(C(F)(F)F)c3)c2c1 | > 10000 nM
6 | COc1cc2ncnc(Nc3ccc(Br)c(Br)c3)c2cc1OC | 0.072 nM
7 | COc1cc2ncnc(Nc3ccc(Br)cc3)c2cc1OC | 0.96 nM
8 | Nc1ccc2ncnc(Nc3cccc(C(F)(F)F)c3)c2c1 | 574 nM
9 | O=[N+]([O-])c1ccc2ncnc(Nc3ccccc3)c2c1 | 5000 nM
10 | COc1ccc2ncnc(Nc3ccccc3)c2c1 | 55 nM
11 | Nc1ccc2c(Nc3cccc(Cl)c3)ncnc2c1 | 0.25 nM
12 | CCOc1cc2ncnc(Nc3cccc(Br)c3)c2cc1OCC | 0.006 nM
13 | CCCOc1cc2ncnc(Nc3cccc(Br)c3)c2cc1OCCC | 0.17 nM
14 | COc1cc2c(Nc3cccc(Br)c3)ncnc2c(OC)c1OC | > 10000 nM
15 | CNc1ccc2ncnc(Nc3cccc(Br)c3)c2c1 | 4 nM
16 | CN(C)c1ccc2ncnc(Nc3cccc(Br)c3)c2c1 | 84 nM
17 | COc1ccc2ncnc(Nc3cccc(Br)c3)c2c1 | 30 nM
18 | Nc1cc2c(Nc3cccc(Br)c3)ncnc2cc1Cl | 6.5 nM
19 | COc1cc2ncnc(Nc3cccc(Br)c3)c2cc1[N+](=O)[O-] | 15 nM
20 | O=[N+]([O-])c1cc2c(Nc3cccc(Br)c3)ncnc2cc1Cl | 25 nM
21 | Nc1ccc2ncnc(Nc3ccccc3)c2c1 | 770 nM
22 | CN(C)c1ccc2c(Nc3cccc(Br)c3)ncnc2c1 | 11 nM
23 | O=[N+]([O-])c1ccc2c(Nc3ccccc3)ncnc2c1 | 12000 nM
24 | Nc1ccc2c(Nc3cccc(I)c3)ncnc2c1 | 0.35 nM

Row | SMILES | IC50
25 | COc1cc2ncnc(Nc3ccccc3Br)c2cc1OC | 128 nM
26 | COc1ccc2c(Nc3ccccc3)ncnc2c1 | 120 nM
27 | COc1cc2ncnc(Nc3cc(Br)cc(Br)c3)c2cc1OC | 113 nM
28 | CNc1cc2ncnc(Nc3cccc(Br)c3)c2cc1[N+](=O)[O-] | 68 nM
29 | CNc1cc2ncnc(Nc3cccc(Br)c3)c2cc1N | 0.69 nM
30 | Fc1cccc(Nc2ncnc3ccccc23)c1 | 56 nM
31 | Brc1cccc(Nc2ncnc3cc4c(cc23)OCO4)c1 | 15 nM
32 | O=[N+]([O-])c1ccc2c(Nc3cccc(I)c3)ncnc2c1 | 540 nM
33 | COc1cc2nc(N)nc(Nc3cccc(Br)c3)c2cc1OC | 463 nM
34 | Oc1ccc2c(Nc3cccc(Br)c3)ncnc2c1 | 4.7 nM
35 | COc1ccc2c(Nc3cccc(Br)c3)ncnc2c1OC | > 10000 nM
36 | CC(=O)Nc1ccc2c(Nc3cccc(Br)c3)ncnc2c1 | 40 nM
37 | CN(C)c1cc2ncnc(Nc3cccc(Br)c3)c2cc1[N+](=O)[O-] | 2000 nM
38 | Nc1cc2ncnc(Nc3cccc(Br)c3)c2cc1[N+](=O)[O-] | 53 nM
39 | O=[N+]([O-])c1ccc2c(Nc3cccc(Cl)c3)ncnc2c1 | 810 nM
40 | CC(=O)Nc1cc2ncnc(Nc3cccc(Br)c3)c2cc1[N+](=O)[O-] | 28 nM
41 | Nc1ccc2c(Nc3cccc(F)c3)ncnc2c1 | 2 nM
42 | COc1cc2ncnc(Nc3ccccc3)c2cc1OC | 29 nM
43 | O=[N+]([O-])c1ccc2c(Nc3cccc(C(F)(F)F)c3)ncnc2c1 | > 10000 nM
44 | COc1cc2ncnc(Nc3cccc(I)c3)c2cc1OC | 0.89 nM
45 | CN(C)c1cc2ncnc(Nc3cccc(Br)c3)c2cc1N | 159 nM
46 | COc1ccc2ncnc(Nc3cccc(Br)c3)c2c1OC | 1370 nM
47 | COc1cc2ncnc(Nc3cccc(Br)c3)c2cc1N | 3.8 nM
